For this assay, the target named is T1, human GPR119 (hGPR119) (Homo sapiens, UniProt Q8TDV5).
T1 construct: expressed in transfected cells
T1 sequence (Q8TDV5 1-335): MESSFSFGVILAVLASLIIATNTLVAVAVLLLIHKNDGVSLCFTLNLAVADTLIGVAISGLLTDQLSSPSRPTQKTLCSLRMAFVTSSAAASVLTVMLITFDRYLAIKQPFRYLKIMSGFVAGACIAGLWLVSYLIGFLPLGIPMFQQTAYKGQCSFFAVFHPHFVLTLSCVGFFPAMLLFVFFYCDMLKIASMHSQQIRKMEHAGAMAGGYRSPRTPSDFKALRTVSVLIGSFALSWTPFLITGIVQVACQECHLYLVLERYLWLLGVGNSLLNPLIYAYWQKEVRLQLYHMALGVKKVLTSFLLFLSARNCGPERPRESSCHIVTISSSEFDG
Put plainly: cAMP accumulation assay (cAMP Gs dynamic HTRF kit). Format: cell-based. As to conditions: CHO-K1 cells stably expressing hGPR119, 4-parameter fit; for Emax: 1 h, % activity normalized to Max/Min controls; for EC50: cAMP accumulation. How it is done: CHO-K1 cells stably expressing human GPR119 (hGPR119) were prepared by transfection of a GPR119-carrying plasmid using Lipofectamine 2000 (following manufacturer instructions). A stable cell line was established using the limiting dilution method with geneticine selection. Assay-ready frozen (ARF) cells were prepared and used throughout the study.
The assay was performed in a 384-well plate format using the cAMP Gs dynamic assay kit from Cisbio. ARF cells expressing hGPR119 were thawed, washed and then resuspended in cAMP stimulation buffer at a cell density of 1.1×10^6 cells/mL. Cells were plated at a density of ˜10,000 cells/well (9 μL/well). Dose response curves for the tested compounds were prepared in a cAMP stimulation buffer, containing 0.1% Tween 80 at 4 fold the final concentration. The compounds were then transferred to the cell plates using BRAVO (3 μL/well) and the plates were incubated for 60 minutes at 37° C./5% CO2. Detection buffer (10 μL, prepared as described in the cAMP Gs dynamic kit) were added to each well, and the plates were incubated at ambient temperature for 1 hr.
RT-FRET was measured using a ClarioSTAR plate reader, calculating the ratio between emissions at 665 nm and 620 nm (HTRF ratio). The HTRF ratio for positive (Max) and negative (Min) controls were used to normalize HTRF data and generate values for % activity. EC50 and Max activity values were determined using a standard 4-parameter fit.
A general note: Changes in cAMP serve as a functional read-out for many G protein-coupled receptors.

The values that follow come from patent US20230061736A1, “GPR119 AGONISTS” (Kallyope, Inc., priority 2019, published 2023).

Molecules are shown by their SMILES.

As to `O=C(Cc1ccc(OCCC2CCC23CCN(c2ncc(Cl)cn2)CC3)cc1F)N1CC(CNC[C@H](O)[C@@H](O)[C@H](O)[C@H](O)CO)C1` (stereo partly drawn) [Example 138, 2-[4-[2-[7-(5-chloropyrimidin-2-yl)-7-azaspiro[3.5]nonan-3-yl]ethoxy]-2-fluoro-phenyl]-1-[3-[[[(2S,3R,4R,5R)-2,3,4,5,6-pentahydroxyhexyl]amino]methyl]azetidin-1-yl]ethanone], the maximal response (Emax) is 50 to 100% and the EC50 was 1 to 10 µM.

`CCc1cnc(N2CCC(CCCOc3ccc(CC(=O)N4CC(CNCC(O)(CO)CO)C4)c(F)c3)CC2)nc1` [Example 63, 1-(3-(((2,3-dihydroxy-2-(hydroxymethyl)propyl)amino)methyl)azetidin-1-yl)-2-(4-(3-(1-(5-ethylpyrimidin-2-yl)piperidin-4-yl)propoxy)-2-fluorophenyl)ethan-1-one]: the Emax was no less than 130% and the EC50 was no more than 0.1 µM.

`O=C(Cc1ccc(OCCCC2CCN(c3ncc(Cl)cn3)CC2)nc1)N1CC(CNC[C@H](O)[C@@H](O)[C@H](O)[C@H](O)CO)C1` [Example 179, 2-[6-[3-[1-(5-chloropyrimidin-2-yl)-4-piperidyl]propoxy]-3-pyridyl]-1-[3-[[[(2S,3R,4R,5R)-2,3,4,5,6-pentahydroxyhexyl]amino]methyl]azetidin-1-yl]ethanone] returned an Emax of 100 to 130% and a concentration giving a half-maximal response (EC50) of 1 to 10 µM.

In turn, `O=C(Cc1ccc(OCCCC2CCN(c3ncc(Cl)cn3)CC2)cc1F)N1CC(CN2C[C@H](O)[C@@H](O)C2)C1` (stereo in doubt) [Example 46, 2-[4-[3-[1-(5-chloropyrimidin-2-yl)-4-piperidyl]propoxy]-2-fluoro-phenyl]-1-[3-[[rac-(3S,4S)-3,4-dihydroxypyrrolidin-1-yl]methyl]azetidin-1-yl]ethanone] showed an Emax of 100 to 130% and an EC50 of no more than 0.1 µM.

`O=C(Cc1ccc(OCCCC2CCN(c3ncc(Cl)cn3)CC2)cc1F)NCCS(=O)(=O)O` [Example 10, 2-[[2-[4-[3-[1-(5-chloropyrimidin-2-yl)-4-piperidyl]propoxy]-2-fluoro-phenyl]acetyl]amino]ethanesulfonic acid] had an Emax of no less than 130% and a 50% effective concentration (EC50) of 1 to 10 µM.

For `O=C(Cc1ccc(OCCCC2CCN(c3ncc(Cl)cn3)CC2)cc1F)N1CC(CN2C[C@@H](O)[C@@H](O)C2)C1` [Example 48, 2-[4-[3-[1-(5-chloropyrimidin-2-yl)-4-piperidyl]propoxy]-2-fluoro-phenyl]-1-[3-[[rac-(3S,4R)-3,4-dihydroxypyrrolidin-1-yl]methyl]azetidin-1-yl]ethanone], the maximum response (Emax) lay within 100 to 130% and the EC50 is no more than 0.1 µM.

For the compound `CC(C)OC(=O)N1CCC2(CC1)CC2CCCOc1cc(F)c(CC(=O)N2CC(CNC[C@H](O)[C@@H](O)[C@H](O)[C@H](O)CO)C2)c(F)c1` (stereo partly drawn) [Example 146, isopropyl 2-[3-[3,5-difluoro-4-[2-oxo-2-[3-[[[(2S,3R,4R,5R)-2,3,4,5,6-pentahydroxyhexyl]amino]methyl]azetidin-1-yl]ethyl]phenoxy]propyl]-6-azaspiro[2.5]octane-6-carboxylate], the Emax is 100 to 130% and the EC50 lay in the range of 0.1 to 1 µM.

For the compound `CC(C)OC(=O)N1CCC2(CC1)CC2CCCOc1ccc(CC(=O)N2CC(CNC[C@H](O)[C@@H](O)[C@H](O)[C@H](O)CO)C2)c(F)c1` (stereo partly drawn) [Example 145, isopropyl 2-[3-[3-fluoro-4-[2-oxo-2-[3-[[[(2S,3R,4R,5R)-2,3,4,5,6-pentahydroxyhexyl]amino]methyl]azetidin-1-yl]ethyl]phenoxy]propyl]-6-azaspiro[2.5]octane-6-carboxylate], the Emax lay in the range of 50 to 100% and the concentration for a half-maximal effect (EC50) is 1 to 10 µM.

Turning to `O=C(Cc1ccc(OCCCC2CCN(c3ncc(Cl)cn3)CC2)cc1F)N1CCC(O)(CNC[C@H](O)[C@H](O)[C@H](O)CO)C1` (stereo partly drawn) [Example 186, 2-[4-[3-[1-(5-chloropyrimidin-2-yl)-4-piperidyl]propoxy]-2-fluoro-phenyl]-1-[3-hydroxy-3-[[[(2S,3S,4R)-2,3,4,5-tetrahydroxypentyl]amino]methyl]pyrrolidin-1-yl]ethanone], the Emax was no less than 130% and the EC50 was no more than 0.1 µM.

As to `O=C(CCC1CN(C(=O)Cc2c(F)cc(OCCCC3CCN(c4ncc(Cl)cn4)CC3)cc2F)C1)NCC(O)(CO)CO` [Example 36, 3-[1-[2-[4-[3-[1-(5-chloropyrimidin-2-yl)-4-piperidyl]propoxy]-2,6-difluoro-phenyl]acetyl]azetidin-3-yl]-N-[2,3-dihydroxy-2-(hydroxymethyl)propyl]propanamide], the maximal effect (Emax) was 100 to 130% and the concentration giving a half-maximal response (EC50) is no more than 0.1 µM.

Consider `CCOc1cnc(N2CCC(CCCOc3ccc(CC(=O)N4CC[C@@H](CNCC(O)(CO)CO)C4)c(F)c3)CC2)nc1` [Example 153, 2-[4-[3-[1-(5-ethoxypyrimidin-2-yl)-4-piperidyl]propoxy]-2-fluoro-phenyl]-1-[(3S)-3-[[[2,3-dihydroxy-2-(hydroxymethyl)propyl]amino]methyl]pyrrolidin-1-yl]ethanone], for which the Emax was no less than 130% and the EC50 is no more than 0.1 µM.

`O=C(Cc1ccc(OCCCC2CCN(c3ncc(Cl)cn3)CC2)cc1F)NCCCCC(=O)NC(CO)(CO)CO` [Example 24, 5-[[2-[4-[3-[1-(5-chloropyrimidin-2-yl)-4-piperidyl]propoxy]-2-fluoro-phenyl]acetyl]amino]-N-[2-hydroxy-1,1-bis(hydroxymethyl)ethyl]pentanamide] came in with an Emax of no less than 130% and an EC50 of 0.1 to 1 µM.

In the case of `O=C(Cc1ccc(OCCCC2CCN(c3ncc(Cl)cn3)CC2)cc1F)N1CCC(O)(CNCC(CO)(CO)CO)C1` (centres unmarked) [Example 180, 2-[4-[3-[1-(5-chloropyrimidin-2-yl)-4-piperidyl]propoxy]-2-fluoro-phenyl]-1-[3-hydroxy-3-[[[3-hydroxy-2,2-bis(hydroxymethyl)propyl]amino]methyl]pyrrolidin-1-yl]ethanone], the Emax lay within 100 to 130% and the EC50 is no more than 0.1 µM.

The compound `CCCc1cnc(N2CCC(CCCOc3ccc(CC(=O)N4CC(CNC[C@H](O)[C@@H](O)[C@H](O)[C@H](O)CO)C4)c(F)c3)CC2)nc1` [Example 74, 2-(2-fluoro-4-(3-(1-(5-propylpyrimidin-2-yl)piperidin-4-yl)propoxy)phenyl)-1-(3-((((2S,3R,4R,5R)-2,3,4,5,6-pentahydroxyhexyl)amino)methyl)azetidin-1-yl)ethan-1-one] had an Emax of no less than 130% and an EC50 of 0.1 to 1 µM.

Turning to `O=C(Cc1ccc(OCCCC2CCN(c3ncc(Cl)cn3)CC2)cc1F)N1CC[C@H](CNCC(O)(CO)CO)C1` [Example 101, 2-[4-[3-[1-(5-chloropyrimidin-2-yl)-4-piperidyl]propoxy]-2-fluoro-phenyl]-1-[(3R)-3-[[[2,3-dihydroxy-2-(hydroxymethyl)propyl]amino]methyl]pyrrolidin-1-yl]ethanone], the maximum response (Emax) is 100 to 130% and the EC50 was no more than 0.1 µM.

Regarding `O=C(Cc1ccc(OCCCC2CCN(c3ncc(Cl)cn3)CC2)cc1F)N1CC(CCNC[C@H](O)[C@@H](O)[C@H](O)[C@H](O)CO)C1` [Example 61], the Emax lay in the range of 100 to 130% and the EC50 is 0.1 to 1 µM.

Compound `O=C(OC[C@@H]1C[C@@H]1C1CCN(c2ncc(Cl)cn2)CC1)c1ccc(CC(=O)N2CC(CNC[C@H](O)[C@@H](O)[C@H](O)[C@H](O)CO)C2)c(F)c1` (racemic) [Example 95, (1R,2R)-2-[1-(5-chloropyrimidin-2-yl)-4-piperidyl]cyclopropyl]methyl 3-fluoro-4-[2-oxo-2-[3-[[[rac-(2S,3R,4R,5R)-2,3,4,5,6-pentahydroxyhexyl]amino]methyl]azetidin-1-yl]ethyl]benzoate] gave a maximum response (Emax) of 100 to 130% and an EC50 of 0.1 to 1 µM.

Consider `O=C(NCCCCCCS(=O)(=O)O)C1CN(C(=O)Cc2ccc(OCCCC3CCN(c4ncc(Cl)cn4)CC3)cc2F)C1` [Example 175, 6-[[1-[2-[4-[3-[1-(5-chloropyrimidin-2-yl)-4-piperidyl]propoxy]-2-fluoro-phenyl]acetyl]azetidine-3-carbonyl]amino]hexane-1-sulfonic acid], for which the maximum response (Emax) fell in the range of 100 to 130% and the 50% effective concentration (EC50) lay within 0.1 to 1 µM.

In turn, `COCc1cnc(N2CCC([C@H]3C[C@H]3CCOc3ccc(CC(=O)N4CC[C@@H](CNCC(CO)(CO)CO)C4)c(F)c3)CC2)nc1` [Example 163, 2-[2-fluoro-4-[2-[(1S,2R)-2-[1-[5-(methoxymethyl)pyrimidin-2-yl]-4-piperidyl]cyclopropyl]ethoxy]phenyl]-1-[(3S)-3-[[[3-hydroxy-2,2-bis(hydroxymethyl)propyl]amino]methyl]pyrrolidin-1-yl]ethanone] returned an Emax of 100 to 130% and a 50% effective concentration (EC50) of no more than 0.1 µM.

A word on the Emax: it is the size of the effect at its maximum, as opposed to the concentration needed. As a reminder, the EC50 is the midpoint of the concentration-response curve. A higher EC50 goes with a need for much substance.
